Patent US8389247B2, “Physiogenomic method for predicting diabetes and metabolic syndromes induced by psychotropic drugs” (priority 2006, dated 2013)

Experiment: Outcome variables of patients on each psychotropic drug broken down by demographic factors (Covariates tables)
Assay type: in vivo, human
From the text: Various SNPs associated with, for example, the observation of various parameters of metabolic syndromes in patients on psychotropic drugs were screened. The endpoints analyzed were the blood levels of LDL, HDL, and glucose; blood pressure; body mass index; waist circumference; and metabolic syndromes index. The physiogenomic model was developed using the following procedure: 1) Establish a covariate model using only the demographic and clinical variables, 2) Screen for associated genetic markers by testing each SNP against the unexplained residual of the covariate model, and 3) Establish a revised model incorporating the significant associations from the SNP screen.

OCCOCCN1CCN(C2=Nc3ccccc3Sc3ccccc32)CC1 [Quetiapine, quetiapine]
LDL (LDL cholesterol level) (Age 20-30): 91.35 | LDL (LDL cholesterol level) (Age 30-40): 102.92 | LDL (LDL cholesterol level) (Age 40-50): 94.39 | LDL (LDL cholesterol level) (Age 50-60): 97.33 | LDL (LDL cholesterol level) (Age 60-70): 88.00 | LDL (LDL cholesterol level) (Age <20): 87.40 | LDL (LDL cholesterol level) (All patients on the drug): 96.71 | LDL (LDL cholesterol level) (Gender female): 92.89 | LDL (LDL cholesterol level) (Gender male): 99.19 | LDL (LDL cholesterol level) (Heritage AA): 94.38 | LDL (LDL cholesterol level) (Heritage Cauc.): 96.93 | BM (human, in vivo): 87.05 | BMI (human, in vivo): 29.44 | Glucose (human, in vivo): 92.08 | HDL (human, in vivo): 49.79 | Log (TG) (human, in vivo): 5.263 | MSI (human, in vivo): 0.2625 | TC (human, in vivo): 192.33 | dBP (human, in vivo): 75.04 | sBP (human, in vivo): 120.07 | LDL (patients on the named drug): 96.71

Cc1nc2n(c(=O)c1CCN1CCC(c3noc4cc(F)ccc34)CC1)CCCC2 [Risperidone, risperidone]
BM (Age 20-30): 77.82 | BMI (Age 20-30): 25.55 | Glucose (Age 20-30): 85.42 | HDL (Age 20-30): 43.50 | LDL (Age 20-30): 93.20 | TC (Age 20-30): 166.80 | Waist (Age 20-30): 92.78 | dBP (Age 20-30): 75.20 | log (TG) (Age 20-30): 4.801 | sBP (Age 20-30): 116.80 | BM (Age 30-40): 77.98 | BMI (Age 30-40): 25.60 | Glucose (Age 30-40): 93.38 | HDL (Age 30-40): 52.19 | LDL (Age 30-40): 92.69 | TC (Age 30-40): 185.54 | Waist (Age 30-40): 92.34 | dBP (Age 30-40): 76.77 | log (TG) (Age 30-40): 5.129 | sBP (Age 30-40): 118.04 | BM (Age 40-50): 77.81 | BMI (Age 40-50): 25.80 | Glucose (Age 40-50): 95.03 | HDL (Age 40-50): 52.00 | LDL (Age 40-50): 100.78 | TC (Age 40-50): 181.71 | Waist (Age 40-50): 97.23 | dBP (Age 40-50): 75.10 | log (TG) (Age 40-50): 4.888 | sBP (Age 40-50): 115.73 | BM (Age 50-60): 76.52 | BMI (Age 50-60): 29.45 | Glucose (Age 50-60): 109.00 | HDL (Age 50-60): 59.50 | LDL (Age 50-60): 85.80 | TC (Age 50-60): 185.70 | Waist (Age 50-60): 100.50 | dBP (Age 50-60): 74.20 | log (TG) (Age 50-60): 5.182 | sBP (Age 50-60): 123.80 | BM (Age 60-70): 87.60 | BMI (Age 60-70): 26.40 | Glucose (Age 60-70): 103.00 | HDL (Age 60-70): 54.00 | LDL (Age 60-70): 111.00 | TC (Age 60-70): 191.00 | Waist (Age 60-70): 103.00 | dBP (Age 60-70): 80.00 | log (TG) (Age 60-70): 4.875 | sBP (Age 60-70): 118.00 | BM (Age <20): 97.73 | BMI (Age <20): 28.93 | Glucose (Age <20): 91.67 | HDL (Age <20): 60.00 | LDL (Age <20): 113.00 | TC (Age <20): 197.33 | Waist (Age <20): 110.33 | dBP (Age <20): 71.33 | log (TG) (Age <20): 4.778 | sBP (Age <20): 123.33 | BM (All): 78.42 | BMI (All): 26.16 | Glucose (All): 94.14 | HDL (All): 51.37 | LDL (All): 96.18 | TC (All): 180.69 | Waist (All): 95.90 | dBP (All): 75.40 | log (TG) (All): 4.958 | sBP (All): 117.58 | BM (Gender female): 73.38 | BMI (Gender female): 27.05 | Glucose (Gender female): 91.57 | HDL (Gender female): 55.74 | LDL (Gender female): 94.32 | TC (Gender female): 179.74 | Waist (Gender female): 95.39 | dBP (Gender female): 74.74 | log (TG) (Gender female): 4.861 | sBP (Gender female): 116.84 | BM (Gender male): 81.45 | BMI (Gender male): 25.62 | Glucose (Gender male): 95.68 | HDL (Gender male): 48.73 | LDL (Gender male): 97.30 | TC (Gender male): 181.27 | Waist (Gender male): 96.20 | dBP (Gender male): 75.79 | log (TG) (Gender male): 5.017 | sBP (Gender male): 118.03 | BM (Heritage AA): 80.46 | BMI (Heritage AA): 27.14 | Glucose (Heritage AA): 115.56 | HDL (Heritage AA): 58.50 | LDL (Heritage AA): 95.50 | TC (Heritage AA): 173.80 | Waist (Heritage AA): 92.90 | dBP (Heritage AA): 78.00 | log (TG) (Heritage AA): 4.478 | sBP (Heritage AA): 117.80 | BM (Heritage Cauc.): 78.19 | BMI (Heritage Cauc.): 26.05 | Glucose (Heritage Cauc.): 92.00 | HDL (Heritage Cauc.): 50.58 | LDL (Heritage Cauc.): 96.25 | TC (Heritage Cauc.): 181.45 | Waist (Heritage Cauc.): 96.23 | dBP (Heritage Cauc.): 75.11 | log (TG) (Heritage Cauc.): 5.011 | sBP (Heritage Cauc.): 117.56 | BM (patients on the named drug): 78.42 | BMI (patients on the named drug): 26.16 | Glucose (patients on the named drug): 94.14 | HDL (patients on the named drug): 51.37 | LDL (patients on the named drug): 96.18 | Log (TG) (patients on the named drug): 4.958 | TC (patients on the named drug): 180.69 | Waist (patients on the named drug): 95.90 | dBP (patients on the named drug): 75.40 | sBP (patients on the named drug): 117.58
